From patent US20240285571A1, “METHODS OF TREATING BONE INFECTIONS” (MICROBION CORPORATION, priority 2020, published 2024)

What was measured:
S. agalactiae = experiment: Broth microdilution MIC (Example 5); format: cell-based; conditions: Streptococcus agalactiae
Summary of the method: (§1)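 Colonies were suspended to a 0.5 McFarland standard, diluted in test media, and dispensed into plates holding two-fold serial drug dilutions.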

S. pyogenes = experiment: Broth microdilution MIC (Example 5); format: cell-based; conditions: Streptococcus pyogenes
Summary of the method: as §1

Enterobacteriaceae = experiment: MIC summary across Enterobacteriaceae (Example 5); format: cell-based, E. coli, K. pneumoniae, Enterobacter cloacae; conditions: all evaluated Enterobacteriaceae isolates (Table 3)
Description: (§2) Test and Comparator Agents: The test agents were stored at room temperature until assayed. All test agents were suspended and diluted in 100% dimethylsulfoxide (DMSO), and were ultimately tested at a final concentration of 0.06-64 μg/mL. The stock solutions were allowed to stand for at least 1 hr prior to use to auto-sterilize.
TestMedia: Test media were prepared and stored in accordance with guidelines from CLSI (4, 6, 7). […] Neisseria gonorrhoeae were evaluated by agar dilution using agar consisting of GC medium base (BD; Lot No. 4274618) supplemented with 1% IsoVitaleX (BD; Lot No. 5246843).
Broth Microdilution MC Testing (Aerobic Bacteria and Yeast): The broth microdilution assay method employed for the susceptibility testing of aerobic bacteria (excluding N. gonorrhoeae which was evaluated by agar dilution) and yeast essentially followed the procedures described by CLSI (3, 4, 7, 8) and employed automated liquid handlers to conduct serial dilutions and liquid transfers. […]
Plates were stacked 4 high, covered with a lid on the top plate, placed into plastic bags, and incubated at 35° C. for approximately 24-48 hr for all yeast isolates and 16-24 hr for aerobic bacteria. […] MIC endpoints for the test agents and control compounds were read per CLSI criteria (3, 7).

anaerobes = experiment: MIC summary, anaerobes (Example 5); format: cell-based, Bacteroides fragilis and Clostridium difficile; conditions: read-out: MIC values across isolates
Description: as §2
The susceptibility of anaerobic bacteria was determined by agar dilution using Brucella Agar (BD/BBL; Lot No. 5237692) supplemented with 5 μg/mL hemin (Sigma, St. Louis, MO; Lot No. 108K1088), 1 μg/mL Vitamin K1 and 5% (v/v) laked sheep blood (Cleveland Scientific, Bath, OH; Lot No. 322799).
Agar Dilution MIC Testing (Anaerobic Bacteria and Gonococci): MIC values for anaerobic bacteria were determined using a reference agar dilution method as described by CLSI (6). Organisms were grown at 35° C. in the Bactron II Anaerobic Chamber (Shel Lab, Cornelius, OR) for approximately 48 hr prior to the assay. Drug dilutions and drug-supplemented agar plates were prepared manually per CLSI (6). The plates were allowed to stand at room temperature for 1 hr to allow the agar surface to dry and pre-reduced for approximately 1 hr in the anaerobe chamber prior to inoculation. Each isolate was suspended to the equivalent of a 0.5 McFarland standard in Brucella broth using a turbidity meter (Dade Behring MicroScan, West Sacramento, CA). […] The MIC was read per CLSI guidelines (6).

For OCC(S)CS.[Bi] (centres unmarked) [MB-2B, bismuth-2,3-dimercaptopropanol], the MIC (S. agalactiae; S. agalactiae MMX 3741, ERYR CCR) was 4 µg/mL, the MIC (S. agalactiae; S. agalactiae MMX 3743, ERYR CCR) was 4 µg/mL and the MIC (S. agalactiae; S. agalactiae MMX 4077, ERYR CCR) was 4 µg/mL. For the same compound, the MIC (S. agalactiae; S. agalactiae MMX 4079, ERYR CCR PenR MEMR) was 8 µg/mL, the MIC (S. pyogenes; S. pyogenes MMX 3068, EryR) was 2 µg/mL and the MIC (S. pyogenes; S. pyogenes MMX 3820, ERYR CLIR) was 1 µg/mL. For the same compound, the MIC (S. pyogenes; S. pyogenes MMX 3919, ERYR) was 0.25 µg/mL, the MIC (S. pyogenes; S. pyogenes MMX 3929, ERYR CCR) was 1 µg/mL and the MIC (S. pyogenes; S. pyogenes MMX 5091, ERYR CCR) was 1 µg/mL. The MIC (Enterobacteriaceae) was 2 to 32 µg/mL and the MIC (anaerobes) was 2 to 16 µg/mL.
